Each structure is given as a SMILES string. Some results are limits rather than exact numbers.

As usually defined, the IC50 is the concentration needed to halve the response being measured. For orientation: CC50 means the concentration that lowers cell viability or growth by half. Lower therefore signals harm at low concentration. By inhibition is commonly meant the change of the read-out against control, counted positive when it falls. Higher therefore signals a response far below the control.

Data set [1] deals with Wnt/β-Catenin signaling pathway. The experiment in a line: Wnt signaling luciferase (TOPflash) reporter gene assay. The format is cell-based. The note with it: for IC50: luciferase reporter gene assay, mean of three independent experiments, read-out: IC50 (nM) to inhibit the Wnt signaling activity. The source says: A dual-luciferase gene reporter assay was used to test inhibitory activities of new compounds on Wnt signaling. […] Therefore, the effects of new compounds on AMPK was examined. […]

A short description of data set [2]: Cytotoxicity (CC50) during the luciferase gene reporter assay. The note with it: human, HEK293 cells; short treatment duration of the luciferase gene reporter assay. The format is cell-based.

Consider `Cc1ccccc1-n1nnc(C(=O)Nc2nc3ccc(Cl)cc3s2)c1C` [YA4071, N-(6-Chlorobenzo[d]thiazol-2-yl)-5-methyl-1-(o-tolyl)-1H-1,2,3-triazole-4-carboxamide], for which, in data set [1], the 50% inhibitory concentration (IC50) came to 67 nM. Further, the 50% cytotoxic concentration (CC50) in data set [2] was greater than 92 µM.

Consider `Cc1ccccc1-n1nnc(C(=O)Nc2ccc3ccc(Br)cc3n2)c1C` [YA1126, N-(7-Bromoquinolin-2-yl)-5-methyl-1-(o-tolyl)-1H-1,2,3-triazole-4-carboxamide], for which the IC50 in data set [1] was greater than 1000 nM. The CC50 in data set [2] was greater than 92 µM.

Take `Cc1ccccc1-n1nnc(C(=O)Nc2cc(CN3CCN(C(=O)OC(C)(C)C)CC3)c3ccccc3n2)c1C` [YA6159, tert-Butyl 4-((2-(5-methyl-1-(o-tolyl)-1H-1,2,3-triazole-4-carboxamido)quinolin-4-yl)methyl)piperazine-1-carboxylate]: the IC50 in data set [1] is greater than 1000 nM. Moreover, the cytotoxic concentration (CC50) in data set [2] was greater than 92 µM.

Consider `Cc1ccccc1-n1nnc(C(=O)Nc2nc(-c3ccccn3)cs2)c1C` [YA4173], for which, in data set [1], the inhibition at 1 µM is 7% and the IC50 was greater than 1000 nM. The molecule further came in with a half-maximal cytotoxic concentration (CC50) in data set [2] greater than 92 µM.

Take `Cc1ccccc1-n1nnc(C(=O)Nc2ccc3ncccc3c2)c1C` [YA6056, 5-Methyl-N-(quinolin-6-yl)-1-(o-tolyl)-1H-1,2,3-triazole-4-carboxamide]: the IC50 in data set [1] was greater than 1000 nM. The same molecule registered a CC50 in data set [2] greater than 92 µM.

Take `Cc1ccccc1-n1nnc(C(=O)Nc2nc3cc(F)ccc3s2)c1C` [YA4101, N-(5-Fluorobenzo[d]thiazol-2-yl)-5-methyl-1-(o-tolyl)-1H-1,2,3-triazole-4-carboxamide]: the 50% inhibitory concentration (IC50) in data set [1] was 16 nM. The molecule also gave a CC50 in data set [2] greater than 92 µM.

As to `Cc1ccccc1-n1nnc(C(=O)Nc2ccc3ccccc3n2)n1` [YA70031, N-(Quinolin-2-yl)-2-(o-tolyl)-2H-tetrazole-5-carboxamide], in data set [1], the IC50 was greater than 1000 nM. In data set [2], this molecule showed a CC50 greater than 92 µM.

Consider `Cc1ccccc1-n1nnc(C(=O)Nc2cccc3cccnc23)c1C` [YA6055, 5-Methyl-N-(quinolin-8-yl)-1-(o-tolyl)-1H-1,2,3-triazole-4-carboxamide], for which the IC50 in data set [1] is greater than 1000 nM. The same molecule came in with a CC50 in data set [2] greater than 92 µM.

Take `COc1ccc2nc(NC(=O)c3nnn(-c4ccccc4C)c3C)sc2c1` [YA4091, N-(6-Methoxybenzo[d]thiazol-2-yl)-5-methyl-1-(o-tolyl)-1H-1,2,3-triazole-4-carboxamide]: in data set [1], the inhibition at 1 µM was found to be 12% and the 50% inhibitory concentration (IC50) is greater than 1000 nM. Besides, in data set [2], the CC50 is greater than 92 µM.

As to `Cc1ccc(-n2nnc(C(=O)Nc3nc4ccccc4s3)c2C)c(C)c1` [YA4039], in data set [1], the inhibition at 1 µM worked out at 88% and the IC50 was 17 nM. The CC50 in data set [2] was greater than 92 µM.

On to `Cc1ccc(-c2csc(NC(=O)c3nnn(-c4ccccc4C)c3C)n2)c(C)c1` [YA4169], for which the IC50 in data set [1] is greater than 1000 nM. Also, in data set [2], the cytotoxic concentration (CC50) is greater than 92 µM.

Turning to `O=C(Nc1nc2ccc(F)cc2s1)c1nnn(-c2ccccc2F)c1C(F)(F)F` [YA6175, N-(6-Fluorobenzo[d]thiazol-2-yl)-1-(2-fluorophenyl)-5-(trifluoromethyl)-1H-1,2,3-triazole-4-carboxamide], in data set [1], the inhibition at 1 µM stood at 85% and the concentration for half-maximal inhibition (IC50) worked out at 17 nM. In data set [2], the CC50 is greater than 92 µM.

Take `COc1cccc2sc(NC(=O)c3nnn(-c4ccccc4C)c3C)nc12` [YA4061, N-(4-Methoxybenzo[d]thiazol-2-yl)-5-methyl-1-(o-tolyl)-1H-1,2,3-triazole-4-carboxamide]: in data set [1], the inhibition at 1 µM was determined as 27% and the IC50 was greater than 1000 nM. The CC50 in data set [2] was greater than 92 µM.

As for `Cc1cccc(Br)c1-n1nnc(C(=O)Nc2nc3ccccc3s2)c1C` [YA1064, N-(Benzo[d]thiazol-2-yl)-1-(2-bromo-6-methylphenyl)-5-methyl-1H-1,2,3-triazole-4-carboxamide], in data set [1], at 1 µM the inhibition was 72% and the IC50 worked out at 126 nM. The CC50 in data set [2] was greater than 92 µM.

The values above are taken from US20240279201A1, “DUAL WNT SIGNALING PATHWAY INHIBITORS AND AMPK ACTIVATORS FOR TREATMENTS OF DISEASE” (priority 2021, published 2024).
